Results on 14 compounds are retold here after ChEMBL document CHEMBL3272279, “Synthesis of 5-chloro-3'-nitro-4'-substituted salicylanilides, a new series of anthelmintic and antimicrobial agents” (1977).

Assay [1] concerns Agrobacterium tumefaciens. Put plainly: Antimicrobial activity against Agrobacterium tumefaciens assessed as growth inhibition after 24 hrs by two-fold serial dilution technique. The assay is classed as functional.
Assay [2] has as its system Escherichia coli. Description: Antimicrobial activity against Escherichia coli assessed as growth inhibition after 24 hrs by two-fold serial dilution technique. It is filed as functional, organism-based.
The next assay relates to Bacillus subtilis. Description: Antimicrobial activity against Bacillus subtilis assessed as growth inhibition after 24 hrs by two-fold serial dilution technique. It is filed as functional, organism-based.
Another assay concerns Staphylococcus aureus. Put plainly: Antimicrobial activity against penicillin-resistant Staphylococcus aureus assessed as growth inhibition after 24 hrs by two-fold serial dilution technique. The assay is classed as functional.
The test system of assay [3] is Candida albicans. Description: Antimicrobial activity against Candida albicans assessed as growth inhibition after 24 hrs by two-fold serial dilution technique. The assay is classed as functional.
Another assay deals with Aspergillus niger. Description: Antimicrobial activity against Aspergillus niger assessed as growth inhibition after 24 hrs by two-fold serial dilution technique. The assay is classed as functional.
The subject of another assay is Microsporum canis. Description: Antimicrobial activity against Microsporum canis assessed as growth inhibition after 24 hrs by two-fold serial dilution technique. The assay is classed as functional.
Another assay has as its system Salmonella typhi. Put plainly: Antimicrobial activity against Salmonella typhi assessed as growth inhibition after 24 hrs by two-fold serial dilution technique. The assay is classed as functional, organism-based. The note with it: Salmonella enterica subsp. enterica serovar Typhi.
Assay [4] concerns Rodentolepis nana. Description: Cestodicidal activity against Hymenolepis nana infected in rat at 250 mg/kg, po administered as single dose. The assay is classed as functional, organism-based. The arrangement: dose 250 mg/kg.
The subject of another assay is Cryptococcus neoformans. Description: Antimicrobial activity against Cryptococcus neoformans assessed as growth inhibition after 24 hrs by two-fold serial dilution technique. It is filed as functional.
Assay [5] has as its system Trichophyton mentagrophytes. Put plainly: Antimicrobial activity against Trichophyton mentagrophytes assessed as growth inhibition after 24 hrs by two-fold serial dilution technique. The assay is classed as functional.
In assay [6] the test system is Escherichia coli. Put plainly: Antimicrobial activity against Escherichia coli assessed as growth inhibition at 0.78 ug/ml after 24 hrs by two-fold serial dilution technique. It is filed as functional, organism-based.
The subject of assay [7] is Rodentolepis nana. Description: Cestodicidal activity against Hymenolepis nana infected in po dosed rat administered as single dose. The assay is classed as functional.
Assay [8] has as its system Candida albicans. Put plainly: Antimicrobial activity against Candida albicans assessed as growth inhibition at 0.39 ug/ml after 24 hrs by two-fold serial dilution technique. It is filed as functional, organism-based.

Each structure is given as a SMILES string. Converted amounts (≈) assume the structure as drawn. The source made the active and inactive calls. The rule behind the calls is not given here.

For the compound `CCCCN(CCCC)c1ccc(NC(=O)c2cc(Cl)ccc2O)cc1[N+](=O)[O-]`, the MIC (commonly the lowest concentration that inhibits growth of the organism) in assay [1] was more than 100 µg/mL; with Staphylococcus aureus, more than 100 µg/mL; in the assay on Aspergillus niger it was 25 µg/mL (≈ 59.5 µM); in the assay with Microsporum canis, 25 µg/mL (≈ 59.5 µM); in the assay with Cryptococcus neoformans, more than 100 µg/mL; in [5], more than 100 µg/mL. Moreover, the “growth inhibition (GI)” value with Escherichia coli [2], with Bacillus subtilis, with Candida albicans [3] and in the assay with Salmonella typhi was “inactive” throughout. The result in the assay on Rodentolepis nana [4] was inactive.

`CCOc1ccc(NC(=O)c2cc(Cl)ccc2O)cc1[N+](=O)[O-]`: the MIC (in assay [1]; with Staphylococcus aureus; with Aspergillus niger; in the assay on Microsporum canis; in the assay on Cryptococcus neoformans; in assay [5]) was more than 100 µg/mL each time. Besides, the “growth inhibition (GI)” value in the assay on Escherichia coli [2], with Bacillus subtilis, in the assay with Candida albicans [3] and with Salmonella typhi was “inactive” in each case. The outcome in the assay with Rodentolepis nana [4] was inactive.

Consider `O=C(Nc1ccc(N2CCCC2)c([N+](=O)[O-])c1)c1cc(Cl)ccc1O`, for which the MIC was more than 100 µg/mL in assay [1]; 0.0975 µg/mL (≈ 0.269 µM) in the assay on Staphylococcus aureus; 25 µg/mL (≈ 69.1 µM) with Candida albicans [3]; 25 µg/mL (≈ 69.1 µM) in the assay on Aspergillus niger; more than 100 µg/mL in the assay with Microsporum canis; 25 µg/mL (≈ 69.1 µM) in the assay with Cryptococcus neoformans. Further, the MIC in assay [5] is more than 100 µg/mL. Besides, the “growth inhibition (GI)” value in the assay on Escherichia coli [2], in the assay with Bacillus subtilis and with Salmonella typhi was “inactive” throughout. Also, in the assay with Rodentolepis nana [4], the outcome was inactive.

Turning to `Cc1ccc(Oc2ccc(NC(=O)c3cc(Cl)ccc3O)cc2[N+](=O)[O-])cc1`, the MIC was more than 100 µg/mL in assay [1]; 0.39 µg/mL (≈ 0.978 µM) in the assay on Staphylococcus aureus; 6.25 µg/mL (≈ 15.7 µM) in the assay on Aspergillus niger; 0.78 µg/mL (≈ 1.96 µM) in the assay on Microsporum canis; more than 100 µg/mL in the assay with Cryptococcus neoformans; 1.56 µg/mL (≈ 3.91 µM) in assay [5]. The “growth inhibition (GI)” value with Escherichia coli [2], in the assay with Bacillus subtilis, in the assay with Candida albicans [3] and with Salmonella typhi was “inactive” in each case. The outcome with Rodentolepis nana [4] was inactive.

For `O=C(Nc1ccc(Oc2ccc(Cl)cc2)c([N+](=O)[O-])c1)c1cc(Cl)ccc1O`, the MIC was 25 µg/mL (≈ 59.6 µM) in [1]; 0.78 µg/mL (≈ 1.86 µM) with Staphylococcus aureus; 25 µg/mL (≈ 59.6 µM) with Aspergillus niger; 0.78 µg/mL (≈ 1.86 µM) in the assay on Microsporum canis; more than 100 µg/mL with Cryptococcus neoformans; 1.56 µg/mL (≈ 3.72 µM) in assay [5]. Moreover, the “growth inhibition (GI)” value in the assay on Escherichia coli [2], with Bacillus subtilis, in the assay with Candida albicans [3] and in the assay with Salmonella typhi was “inactive” throughout. The result with Rodentolepis nana [4] was inactive.

Take `Cc1cccc(Oc2ccc(NC(=O)c3cc(Cl)ccc3O)cc2[N+](=O)[O-])c1`: the MIC in assay [1] is more than 100 µg/mL; with Staphylococcus aureus it was 0.195 µg/mL (≈ 0.489 µM); with Aspergillus niger, more than 100 µg/mL; in the assay on Microsporum canis it was 0.78 µg/mL (≈ 1.96 µM); in the assay on Cryptococcus neoformans, more than 100 µg/mL; in assay [5], 1.56 µg/mL (≈ 3.91 µM). Further, the “growth inhibition (GI)” value in the assay on Escherichia coli [2], with Bacillus subtilis, with Candida albicans [3] and in the assay with Salmonella typhi was “inactive” each time. Further, the result with Rodentolepis nana [4] was inactive.

As to `CN(C)[C@@H]1C(O)=C(C(N)=O)C(=O)[C@@]2(O)C(O)=C3C(=O)c4c(O)cccc4[C@@](C)(O)[C@H]3C[C@@H]12` [TETRACYCLINE], the minimal inhibitory concentration (MIC) in assay [1] is 0.78 µg/mL (≈ 1.76 µM). In the assay with Escherichia coli [6], the “growth inhibition (GI)” value is “Active”.

For the compound `O=C(Nc1ccc(NC2CCCCC2)c([N+](=O)[O-])c1)c1cc(Cl)ccc1O`, the MIC in assay [1] is more than 100 µg/mL; in the assay with Staphylococcus aureus it was 0.0975 µg/mL (≈ 0.25 µM); in the assay with Aspergillus niger, 25 µg/mL (≈ 64.1 µM); in the assay with Microsporum canis it was 3.12 µg/mL (≈ 8.02 µM); in the assay on Cryptococcus neoformans, 25 µg/mL (≈ 64.1 µM); in [5], 3.12 µg/mL (≈ 8.02 µM). Besides, the “growth inhibition (GI)” value with Escherichia coli [2], in the assay with Bacillus subtilis, with Candida albicans [3] and with Salmonella typhi was “inactive” each time. Also, the MED98 in the assay with Rodentolepis nana [7] was 30 mg/kg.

Consider `CC1CCN(c2ccc(NC(=O)c3cc(Cl)ccc3O)cc2[N+](=O)[O-])CC1`, for which the MIC is 25 µg/mL (≈ 64.1 µM) in assay [1]; 0.0975 µg/mL (≈ 0.25 µM) in the assay with Staphylococcus aureus; more than 100 µg/mL in the assay with Aspergillus niger; more than 100 µg/mL with Microsporum canis; 3.12 µg/mL (≈ 8.02 µM) with Cryptococcus neoformans; more than 100 µg/mL in assay [5]. In addition, the “growth inhibition (GI)” value in the assay on Escherichia coli [2], in the assay with Bacillus subtilis, with Candida albicans [3] and in the assay with Salmonella typhi was “inactive” throughout. In the assay with Rodentolepis nana [7], this compound returned an MED98 of 250 mg/kg.

For `CCC1CCCCN1c1ccc(NC(=O)c2cc(Cl)ccc2O)cc1[N+](=O)[O-]` (centres undefined), the MIC in assay [1] was more than 100 µg/mL; with Staphylococcus aureus, 0.39 µg/mL (≈ 0.966 µM); with Aspergillus niger, more than 100 µg/mL; in the assay with Microsporum canis it was 6.25 µg/mL (≈ 15.5 µM); in the assay on Cryptococcus neoformans it was 25 µg/mL (≈ 61.9 µM); in assay [5] it was 6.25 µg/mL (≈ 15.5 µM). Moreover, the “growth inhibition (GI)” value in the assay on Escherichia coli [2], in the assay with Bacillus subtilis, in the assay with Candida albicans [3] and with Salmonella typhi was “inactive” in each case. Also, the MED98 in the assay on Rodentolepis nana [7] amounted to 100 mg/kg.

Consider `O=C(Nc1ccc(N2CCCCCC2)c([N+](=O)[O-])c1)c1cc(Cl)ccc1O`, for which the MIC was more than 100 µg/mL in assay [1]; 0.0975 µg/mL (≈ 0.25 µM) in the assay on Staphylococcus aureus; more than 100 µg/mL in the assay with Aspergillus niger; 25 µg/mL (≈ 64.1 µM) with Microsporum canis; more than 100 µg/mL in the assay with Cryptococcus neoformans; 25 µg/mL (≈ 64.1 µM) in assay [5]. In addition, the “growth inhibition (GI)” value with Escherichia coli [2], in the assay on Bacillus subtilis, in the assay with Candida albicans [3] and in the assay on Salmonella typhi was “inactive” each time. The MED98 with Rodentolepis nana [7] worked out at 50 mg/kg.

Turning to `O=C(Nc1ccc(N2CCCCC2)c([N+](=O)[O-])c1)c1cc(Cl)ccc1O`, the MIC in [1] is 12.5 µg/mL (≈ 33.3 µM); in the assay with Staphylococcus aureus, 0.195 µg/mL (≈ 0.519 µM); with Candida albicans [3], 25 µg/mL (≈ 66.5 µM); with Aspergillus niger, 12.5 µg/mL (≈ 33.3 µM); in the assay with Microsporum canis, more than 100 µg/mL; in the assay with Cryptococcus neoformans, 1.56 µg/mL (≈ 4.15 µM). The minimum inhibitory concentration (MIC) in assay [5] was more than 100 µg/mL. In addition, the “growth inhibition (GI)” value in the assay with Escherichia coli [2], in the assay on Bacillus subtilis and in the assay with Salmonella typhi was “inactive” each time. Also, in the assay on Rodentolepis nana [7], the MED98 came to 250 mg/kg.

Consider `CC1CCCCN1c1ccc(NC(=O)c2cc(Cl)ccc2O)cc1[N+](=O)[O-]` (centres undefined), for which the MIC is more than 100 µg/mL in [1]; 0.0975 µg/mL (≈ 0.25 µM) in the assay on Staphylococcus aureus; more than 100 µg/mL in the assay on Aspergillus niger; 6.25 µg/mL (≈ 16 µM) in the assay on Microsporum canis; more than 100 µg/mL in the assay on Cryptococcus neoformans; 12.5 µg/mL (≈ 32.1 µM) in assay [5]. The “growth inhibition (GI)” value with Escherichia coli [2], with Bacillus subtilis, in the assay on Candida albicans [3] and in the assay with Salmonella typhi was “inactive” in each case. This compound showed an MED98 in the assay with Rodentolepis nana [7] of 50 mg/kg.

Turning to `C[C@@H]1[C@H](O)[C@@H](C)/C=C/C=C/C=C/C=C/C=C/C=C/C=C/[C@H](O[C@@H]2O[C@H](C)[C@@H](O)[C@H](N)[C@@H]2O)C[C@@H]2O[C@](O)(C[C@@H](O)C[C@@H](O)[C@H](O)CC[C@@H](O)C[C@@H](O)CC(=O)O[C@H]1C)C[C@H](O)[C@H]2C(=O)O` [AMPHOTERICIN B], the MIC in the assay on Aspergillus niger came out at 12.5 µg/mL (≈ 13.5 µM); with Microsporum canis, 1.56 µg/mL (≈ 1.69 µM); in the assay with Cryptococcus neoformans, 0.78 µg/mL (≈ 0.844 µM); in assay [5], 1.56 µg/mL (≈ 1.69 µM). Moreover, the “growth inhibition (GI)” value in the assay on Candida albicans [8] is “Active”.
